From patent US12702675B2, “Tetrahydrococannabinolic acid cocrystals” (Manoira Corporation, priority 2020, dated 2026)

Key:
[1] = Solid-state stability study, accelerated conditions (40° C. and 75% relative humidity, 14 days); format: physicochemical; conditions: 40° C./75% RH, 2 weeks, sealed container
Method: A study was carried out to examine the physical stability of the tetrahydrocannabinolic acid cocrystals with respect to solid form conversion or signs of decomposition over time under both ambient and accelerated conditions.

[2] = Solid-state stability study, ambient conditions in clear glass vial for 6 months; format: physicochemical

## 1:1 tetrahydrocannabinolic acid ethyl maltol cocrystal [1:1 THCA ETHYL MALTOL]
[1]; 50 mg solid
  Appearance: No change
[1]; form change by XRPD
  XRPD analysis: slight signs of dissociation
[2]; 50 mg solid
  Appearance: No change
[2]; form change by XRPD
  XRPD analysis: No change
